Measured values reported in publication PMC10574562 (Molecules, 2023).
Entries after “also recorded” stand apart in the source; their conditions may differ.

Legend:
[1] = system: oligodendrocyte progenitor cells (OPCs); test: MTT reduction assay on purified OPC cultures; assay type: cell-based, mouse; details: 10 μM; for Effect on metabolic activity of OPCs (MTT reduction): 48 h incubation, purified mouse OPCs, vs DMSO controls
Protocol: Purified mouse OPCs were grown for 24 h and treated with EDA 1 and analogues 2b–4c (10 μM) for 44 h; then, MTT was added and OPCs were incubated for 4 h.
Primary cultures of purified OPC (>99%) were obtained from the cerebral hemispheres of newborn CD1 Swiss mice according to the authorization for the care and use of laboratory animals mentioned in Section 4.2.1. OPCs were grown in a defined serum-free Dulbecco’s Modified Eagle Medium (DMEM) without thyroid hormones at 1 × 10^5 cells/cm^2 into poly-L-lysine-coated 96-well microtiter plates for 3 days.
One day after plating, purified OPCs were incubated with or without EDA analogues (10 µM) in DMSO (0.001% vehicle) for 48 h. MTT reduction to formazan was carried out as previously described. MTT (Sigma-Aldrich, Milan, Italy) was added to the culture medium at a final 0.25 mg/mL concentration during the last 4 h of incubation.

[2] = Determination of distribution coefficient LogD7.4 (1-octanol/PBS); assay type: physicochemical; details: 1-octanol/PBS pH 7.4; ± SD; read-out: Log D7.4
Protocol: (§1) We experimentally confirmed their predicted poor to medium–good permeability profile by measuring their LogD at physiological pH through a known procedure, and by determining their percentage bound to model lipid bilayers after incubation, as a measure of their affinity for cell-membrane-like liposomes. Results are shown in Table 2 (LogD7.4, column 2; interaction with liposomes at 20 °C and 37 °C, columns 3 and 4, respectively).
LogD7.4 values were determined by slightly modifying a reported procedure. Namely, an 80 mM solution of each selected EDA analogue in DMSO was diluted in 1-octanol at a final 800 μM concentration. UV–vis spectra were acquired to determine λmax and the necessary dilutions to obtain absorption values for each tested analogue; between 0.5 and 1. 5 mL of each solution were placed in 15 mL conical centrifuge tubes, PBS was added (5 mL, pH 7.4) and the biphasic system was vigorously mixed using a vortex mixer (VELP Scientifica, Usmate Velate, MB, Italy) for 4 min. After centrifugation (2000× g, 30 min), the 1-octanol phase absorption was measured at each compound’ λmax; the procedure was repeated to acquire data in triplicate. The distribution coefficient logD7.4 was calculated according to the following equation: LogD7.4 = Log ([C]oct/[C]PBS) = Log (Af/Ai − Af)(2) where Ai is the pre-extraction measured absorbance in 1-octanol and Af is the post-extraction final measured absorbance in 1-octanol.

[3] = Interaction with liposome cell membrane models; assay type: in vitro ADME
Protocol: as §1
EDA analogues dissolved in MeOH (0.1 mL) were added to 0.9 mL of large unilamellar phosphatidylcholine vesicles (PC LUVs) in PBS (3 mM lipid final concentration; 0.6 mM EDA analogue final concentration) and incubated at 37 °C for 20 min. Then, any remaining free EDA analogue was separated from liposomes by size-exclusion chromatography.
A disposable syringe (2.5 mL) packed with hydrated Sephadex G-50 resin was placed in a 15 mL plastic test tube and preconditioned with PBS; then, the liposomal suspension (1 mL) was gently added on the top of the syringe and centrifuged at 500× g for 10 min. The eluate was collected at the bottom of the test tube and lysed by addition of Triton X-100 (final concentration 1% v/v). The concentration of each EDA analogue in each solution was estimated with the Folin–Ciocalteu assay. Namely, 50% Folin–Ciocalteu reagent (150 μL) was added to test samples (50 μL) into a 96-well microplate and shaken. After 10 min, a 7.5% sodium carbonate solution (0.1 mL) was added; the mixtures were incubated in the dark for 1 h at rt; and, finally, the absorbance was measured at 765 nm on a BioTek SynergyHT MicroPlate Reader spectrophotometer (Marshall Scientific, Hampton, NH, USA) using an appropriate blank. Reference calibration curves were plotted for every sample. The ratio (%) of the drug incorporated into the lipid bilayer was then calculated according to the following equation:% ratio of incorporated antioxidant = 100 × [incorporated amount]/[added amount](3)

Cu-induced ROS = Cu-induced ROS inhibition; details: ± SD
Excerpt: Table 2 In vitro profiling for EDA 1 and selected analogues 2b, 2c and 4a. | column: Cu-Induced ROS Inhibition ^c,a

[4] = Chemical stability in biological media (DPPH assay and TLC); assay type: in vitro ADME; details: PBS and standard medium, 20 min
Protocol: We investigated the stability of 4′-ester EDA 2c and N^1-carbamate 4′-ester EDA 4a (respectively, black and grey bars, Figure 5) in biological media, checking both ester and N^1-carbamate stability in 4a both by thin-layer chromatography (TLC) and by checking the DPPH radical scavenging activity of 2c and 4a after incubation.
Namely, 2c and 4a were incubated in PBS and in standard medium at 20 °C and 37 °C for 20 min; then, DPPH was added and the radical scavenging activity was measured in all media.
4′-Ester 2c and N^1-carbamate ester 4a were incubated in PBS and in a standard cell culture medium supplemented with FBS 10% at 20 °C and 37 °C. After 20 min, appropriate aliquots of the solutions were mixed with DPPH in methanol (25 µM, DPPH 100 µM, final concentration) and the DPPH radical scavenging assay was carried out as described above. Assay media after incubation were also monitored by TLC (eluent mixture: 1:1 cyclohexane/AcOEt).

[5] = DPPH radical scavenging assay; details: 25 µM analogue, 100 µM DPPH, MeOH, 30 min incubation
Protocol: A DPPH assay was carried out after 30 min of incubation with EDA 1 and its analogues in reported conditions to determine their radical scavenging ability.
The DPPH free radical scavenging activity of EDA analogues was determined using a previously described method. Appropriate aliquots of putative antioxidants 1–13c were mixed with DPPH in methanol (25 µM EDA analogue, 100 µM DPPH, final concentration); the reaction mixtures were shaken and then incubated for 30 min in the dark. Their absorbances, and the absorbance of a DPPH solution as a negative control, were then measured at 517 nm with a BioTek SynergyHT MicroPlate Reader spectrophotometer (Marshall Scientific, Hampton, NH, USA) against methanol as blank. The scavenging percentage of each EDA analogue was calculated according to the following equation:DPPH radical scavenging (%) = [(Acontrol—Asample)/Acontrol] × 100,(1) where Acontrol is the control absorbance obtained by adding a methanol aliquot equal to the EDA analogue solution volume added to the methanolic DPPH solution and Asample is the absorbance of each test solution after 30 min incubation. All experiments were repeated at least three times, and measurements were run in triplicate.

[6] = system: oligodendrocyte progenitor cells (OPCs); test: MTT reduction assay on purified OPC cultures; assay type: cell-based, mouse; details: lower dosages than 10 μM (not shown)

logD [2] | Affinity for a Model Lipid Bilayer, % ratio of liposome-bound EDA analogue ([3]; 20 °C) | Affinity for a Model Lipid Bilayer, % ratio of liposome-bound EDA analogue ([3]; 37 °C) | IC50 (Cu-induced ROS) | SMILES | Effect on metabolic activity of OPCs (MTT reduction) [1] | DPPH radical scavenging/antioxidant activity [5] | further results
2.3 ± 0.4 | 88 ± 6% | 77 ± 4% | 65 ± 6 µM | COC(=O)c1ccc(-n2c(=O)cc(C)n2C(=O)OC(C)(C)C)cc1 [Compound 4a, Tert-butyl 2-(4-(methoxycarbonyl)phenyl)-5-methyl-3-oxo-2,3-dihydro-1H-pyrazole-1-carboxylate] | stimulated OPC metabolism comparably to EDA 1; also recorded: comparable stimulation of OPC metabolism |  | DPPH radical scavenging activity after incubation in biological media ([4]; 20 °C): did not scavenge DPPH; Stability in biological media by TLC ([4]; 20 °C): stability was confirmed by TLC; DPPH radical scavenging activity after incubation in biological media ([4]; 37 °C): significant antioxidant activity was detected; Stability in biological media by TLC (N^1-carbamate) ([4]; 37 °C): N^1-carbamate hydrolysis and 2c formation; also recorded: fully removed
 |  |  |  | CC1=NN(c2ccc(C(=O)NCCN=[N+]=[N-])cc2)C(=O)C1 [Compound 2d] | did not stimulate OPC development compared to DMSO controls; also recorded: lack of activity on OPCs | comparable antioxidant activity to EDA 1 | 
 |  |  |  | CCC1=NN(c2ccccc2)C(=O)C1 [Compound 3a] |  | comparable antioxidant activity to EDA 1 | Cytotoxicity on OPCs in MTT assay [1]: cytotoxic at this concentration; OPC activity in MTT assay at lower dosages [6]: inactive at lower dosages
 |  |  |  | CC1=NN(c2ccc(C(=O)NCc3ccc(C4(C(F)(F)F)N=N4)cc3)cc2)C(=O)C1 [Compound 2f] | lack of activity on OPCs |  | Cytotoxicity on OPCs in MTT assay [1]: cytotoxic at this concentration; OPC activity in MTT assay at lower dosages [6]: inactive at lower dosages
 |  |  |  | O=C1CC(COCc2ccccc2)=NN1c1ccccc1 [Compound 3b] |  | comparable antioxidant activity to EDA 1 | 
 |  |  |  | CC1=NN(c2ccc(CO)cc2)C(=O)C1 [Compound 2g] |  | comparable antioxidant activity to EDA 1 | 
-0.74 ± 0.19 | 38 ± 4% | 45 ± 2% | 38 ± 5 µM | CC1=NN(c2ccc(C(=O)O)cc2)C(=O)C1 [Compound 2b] |  | significantly more potent than EDA 1; also recorded: significantly higher antioxidant activity than parent EDA 1 | 
1.1 ± 0.1 | 37 ± 3% | 53 ± 2% | 14 ± 2 µM | CC1=NN(c2ccccc2)C(=O)C1 [Compound 1, edaravone, reference compound] |  |  | 
 |  |  |  | CC1=NN(c2ccc(CN=[N+]=[N-])cc2)C(=O)C1 [Compound 2h] | did not stimulate OPC development compared to DMSO controls; also recorded: lack of activity on OPCs | comparable antioxidant activity to EDA 1 | 
1 ± 0.1 | 52 ± 2% | 71 ± 2% | 53 ± 7 µM | COC(=O)c1ccc(N2N=C(C)CC2=O)cc1 [Compound 2c, Methyl 4-(3-methyl-5-oxo-4,5-dihydro-1H-pyrazol-1-yl)benzoate] | stimulated OPC metabolism comparably to EDA 1; also recorded: comparable stimulation of OPC metabolism | comparable antioxidant activity to EDA 1 | DPPH radical scavenging activity after incubation in biological media ([4]; 20 °C and 37 °C): expected radical scavenging activity; Stability in biological media by TLC ([4]; 20 °C and 37 °C): stability in biological media was confirmed
 |  |  |  | CC1=NN(c2ccc(C(=O)NCCCCCCN=[N+]=[N-])cc2)C(=O)C1 [Compound 2e] | did not stimulate OPC development compared to DMSO controls; also recorded: lack of activity on OPCs |  | 
